The values that follow come from patent US20150342882A1, “METHODS OF TREATMENT USING CADOTRIL COMPOSITIONS” (Johnson & Johnson Consumer Inc., priority 2012, published 2015).

In brackets after ≈: the same amount, converted by molar mass.

This data set can be described thus: Water solubility of racecadotril. The format is physicochemical. As to conditions: room temperature conditions.

Take `CC(=O)SCC(Cc1ccccc1)C(=O)NCC(=O)OCc1ccccc1` (racemic) [Racecadotril, (RS)-benzyl N-[3-(acetylthio)-2-benzylpropanoyl]glycinate]: the solubility was ~10 µg/mL (≈ 25.9 µM).
